Assay results as given in US7786310B2, “Small molecule transcriptional activation domains” (The Regents of the University of Michigan, priority 2004, dated 2010).

What was measured:
HeLa nuclear extracts = conditions: for ability to up-regulate transcription (activity in words, compared with AD 1): Example 9 numbering (FIG. 13/14A), ATF14 as positive control, FIG. 15
[1] = tested on: transcription mediated by 4; experiment: competition/squelching experiment: free activation domain added to in vitro transcription reactions containing the DNA-bound activator; format: biochemical, human; conditions: 1-10 μM concentration of free activation domain; FIG. 7
Protocol: In this experiment, micromolar concentrations of free activation domain are added to transcription reactions containing the DNA-bound activator and the corresponding affect on transcription levels is measured. Results with one of the activation domains (4) is shown (See, e.g., FIGS. 7-8).

COC(OC)C1CC(CCO)(CC(C)C)N(Cc2ccccc2)O1 (centres unmarked) [S8, 2-(2-Benzyl-5-dimethoxymethyl-3-isobutyl-isoxazolidin-3-yl)-ethanol]
transcriptional activation when the activation domain is not covalently linked to methotrexate (not localized to DNA) (HeLa nuclear extracts; isoxazolidine and methotrexate hydrazide 1 added separately in the same reaction, FIG. 6): Little activation
suppression of transcription mediated by 4 [1]: ~50%

2-(4({(6-(Amino-methylcarbaminidoylimino-methyl)-pyrazin-2-ylmethyl)-methylamino}-methyl)-benzoylamino)-4-(2-(2-benzyl-(5RS)-hydroxymethyl-(3RS)-isobutylisoxazolidin-3-yl)-ethylidene-hydrazinocarbonyl)-(S)-butyric acid [isoxazolidine 6]
ability to up-regulate transcription (activity in words, compared with AD 1) (HeLa nuclear extracts): function well as transcriptional ADs

CC(C)C[C@]1(C/C=N/NC(=O)CC[C@H](NC(=O)c2ccc(N(C)Cc3cnc4nc(N)nc(N)c4n3)cc2)C(=O)O)C[C@](C)(CO)ON1CC(=O)O (racemic) [isoxazolidine 3, 2-(4({(6-(Amino-methylcarbaminidoylimino-methyl)-pyrazin-2-ylmethyl)-methylamino}-methyl)-benzoylamino)-4-{2-((5RS)-hydroxymethyl-2-(hydroxy-2-oxopropyl)-(3RS)-isobutyl-isoxazolidin-3-yl)-ethylidene-hydrazinocarbonyl}-(S)-butyric acid]
ability to up-regulate transcription (activity in words, compared with AD 1) (HeLa nuclear extracts): indistinguishable from that of AD 1

2-(4({(6-(Amino-methylcarbaminidoylimino-methyl)-pyrazin-2-ylmethyl)-methylamino}-methyl)-benzoylamino)-4-(2-benzyl-(3RS)-(2-hydroxy-ethyl)-3-isobutylisoxazolidin-(5RS)-ylmethylene-hydrazinocarbonyl)-(S)-butyric acid [isoxazolidine 4]
ability to up-regulate transcription (activity in words, compared with AD 1) (HeLa nuclear extracts): indistinguishable from that of AD 1
